According to ChEMBL document CHEMBL4627347, “The signal peptide as a new target for drug design” (Bioorg Med Chem Lett, 2020):

Tests used:
[1] = target: T-cell surface glycoprotein CD4 (Homo sapiens, UniProt P01730); experiment: Inhibition of FITC-tagged human CD4 expressed in human SUP-T1 cells after 72 hrs by FACS analysis; format: cell-based
Sortilin = target: T1, Sortilin (Homo sapiens, UniProt Q99523); experiment: Inhibition of GFP-tagged Sortilin (unknown origin) expressed in HEK293T cells after 42 hrs by FACS analysis; format: cell-based, HEK-293T
T1 sequence (Q99523 whole entry): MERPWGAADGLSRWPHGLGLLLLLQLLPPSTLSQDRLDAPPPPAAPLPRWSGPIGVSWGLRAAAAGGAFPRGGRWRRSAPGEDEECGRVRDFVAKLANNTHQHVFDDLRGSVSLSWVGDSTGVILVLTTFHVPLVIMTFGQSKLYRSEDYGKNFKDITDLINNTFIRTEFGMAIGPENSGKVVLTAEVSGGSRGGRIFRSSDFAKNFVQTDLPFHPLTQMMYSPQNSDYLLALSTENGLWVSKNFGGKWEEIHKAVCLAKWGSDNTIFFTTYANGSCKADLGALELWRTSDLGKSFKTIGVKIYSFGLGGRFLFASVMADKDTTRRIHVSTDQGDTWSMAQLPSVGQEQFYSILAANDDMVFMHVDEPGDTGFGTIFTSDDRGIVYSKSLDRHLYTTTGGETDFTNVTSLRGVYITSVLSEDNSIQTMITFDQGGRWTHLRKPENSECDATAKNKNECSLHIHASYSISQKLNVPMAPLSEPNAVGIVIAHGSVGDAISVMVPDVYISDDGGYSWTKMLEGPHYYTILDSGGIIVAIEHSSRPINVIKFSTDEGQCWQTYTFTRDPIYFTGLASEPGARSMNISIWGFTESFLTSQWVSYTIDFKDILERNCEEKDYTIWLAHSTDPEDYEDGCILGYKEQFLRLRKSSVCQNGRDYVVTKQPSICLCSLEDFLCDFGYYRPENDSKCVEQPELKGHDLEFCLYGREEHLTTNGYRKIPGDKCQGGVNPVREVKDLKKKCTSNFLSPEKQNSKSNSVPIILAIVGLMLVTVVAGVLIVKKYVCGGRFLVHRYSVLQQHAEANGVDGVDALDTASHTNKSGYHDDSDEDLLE

Work on `C=C1CN(S(=O)(=O)c2ccc(C)cc2)CCCN(Cc2ccccc2)CCCN(S(=O)(=O)c2ccc(C)cc2)C1` yielded an IC50 [1] of 210 nM and an IC50 (Sortilin) of 380 nM.
